Experimental data reported in patent publication US10676471B2, “Cycloalkyl-linked diheterocycle derivatives” (Pfizer Inc., priority 2014, dated 2020).

System: BT20 Cell
Test: Cancer Cell Lysate Total L-Glutamate Assay
Format: cell-based
Conditions: Homo sapiens, BT-20, 2 h, total L-glutamate in cell lysate, BT20 cells, 2 hour incubation with test compound
Experimental: Cancer Cell Lysate Total L-Glutamate Assay
Cancer cell lines (BT20, HCT116, SKOV3, HCC70, SUM149, MDA-MB-231, etc.) were plated in 96 well plates and were used for the total L-glutamate assay when the monolayer was ca. 80% confluent. The media was changed and fresh media containing L-glutamine was added to the 96 well plates, just before incubation of the cells with test compound. The test compound was diluted in 100% DMSO using a two-fold or three-fold serial dilution. Small volumes of the dilutions of test compound were added to the 96 well plates so the final DMSO concentration was 0.5% v/v in the cell culture medium. The cells were incubated at 37° C., 5% CO2, and 95% air for 2 hours. Following the 2 hour incubation, the cells were washed with water 2 times. After the last water wash, 100 μL of 50 mM Tris-HCl pH 7.4 and 0.01% Tween-20 was added to each well and the plate was frozen at −80° C. The 96 well plate was frozen and thawed a total of 3 times and then sonicated for 5 min at 4° C. in a bath sonicator. Following sonication, the 96 well plate was centrifuged for 5 min at 1000 rpm and 10 μL of the supernatant was transferred to a 384 well assay plate.
Total L-glutamate (L-glutamic acid) in the cell lysis supernatant was detected using glutamate oxidase, horseradish peroxidase and Amplex Red reagent (10-acetyl-3,7-dihydroxy phenoxazine, Invitrogen # A22177). In this assay, L-glutamate was oxidized by glutamate oxidase to produce alpha-ketoglutarate (2-oxopentane dioic acid), NH3 and H202. The H2O2 (hydrogen peroxide) was used by horseradish peroxidase (HRP) to oxidize the Amplex Red Reagent to resorufin which is a fluorescent molecule. When resorufin is excited with light with a wavelength 530-560 nm, it emits light at approximately 585 nm. For detection of total L-glutamate in 10 μL of lysate, 15 μL of an enzyme mixture was added to each well of the 384 well assay plate. The enzyme mixture consisted of 50 mM Tris-HCl pH 7.4, 0.01% Tween-20, 50 μM Amplex Red reagent (final concentration), 0.04 U/mL L-glutamate oxidase (final concentration), and 0.125 U/mL HRP (final concentration). The 384 well assay plate was incubated at room temperature for 5 min and then the fluorescence intensity of each well was measured at 585 nm using a 530-560 nm excitation wavelength in a plate based fluorimeter such as an LJL Analyst or a Tecan Infinite plate reader. Standard curves were constructed for this assay using dilutions of a L-glutamate standard. IC50 were calculated by plotting the relative fluorescent units vs log of the inhibitor concentration and fitting the data to the four parameter logistic equation.
Reference: Chapman J. and Zhou M. (1999) Microplate-based fluorometric methods for the enzymatic determination of I-glutamate: application in measuring I-glutamate in food samples. Analytica Chim Acta 402:47-52.

IC50 [nM]	SMILES
3	CC(C)C(=O)Nc1ccc(CC2CCC(c3nnc(NC(=O)Cc4ccccn4)s3)C2)nn1 (racemic) [Example 76, (rac)-2-methyl-N-(6-{[(cis)-3-{5-[(pyridin-2-ylacetyl)amino]-1,3,4-thiadiazol-2-yl}cyclopentyl]methyl}pyridazin-3-yl)propanamide]
2.4	O=C(Cc1ccccn1)Nc1nnc(CC2CCC(c3nnc(Nc4ncccn4)s3)C2)s1 (racemic) [Example 83, (rac)-2-(pyridin-2-yl)-N-[5-({(cis)-3-[5-(pyrimidin-2-ylamino)-1,3,4-thiadiazol-2-yl]cyclopentyl}methyl)-1,3,4-thiadiazol-2-yl]acetamide]
7.5	O=C(Cc1ccccn1)Nc1nnc(CC2CCC(c3nnc(Nc4cnccn4)s3)C2)s1 (racemic) [Example 87, (rac)-N-[5-({(cis)-3-[5-(pyrazin-2-ylamino)-1,3,4-thiadiazol-2-yl]cyclopentyl}methyl)-1,3,4-thiadiazol-2-yl]-2-(pyridin-2-yl)acetamide]
13	Cn1ccc(Nc2nnc(C3CCC(Cc4nnc(NC(=O)Cc5ccccn5)s4)C3)s2)n1 (racemic) [Example 88, (rac)-N-(5-{[(cis)-3-{5-[(1-methyl-1H-pyrazol-3-yl)amino]-1,3,4-thiadiazol-2-yl}cyclopentyl]methyl}-1,3,4-thiadiazol-2-yl)-2-(pyridin-2-yl)acetamide]
8.5	CC(C)C(=O)Nc1nnc(C2CC3(C2)CC(c2nnc(NC(=O)C(C)C)s2)C3)s1 (racemic) [Example 94, (rac)-N,N′-(spiro[3.3]heptane-2,6-diyldi-1,3,4-thiadiazole-5,2-diyl)bis(2-methylpropanamide)]
0.3	Cn1ccc(CC(=O)Nc2nnc(C3CC4(C3)CC(c3nnc(NC(=O)Cc5ccn(C)n5)s3)C4)s2)n1 (racemic) [Example 96, (rac)-N,N-(spiro[3.3]heptane-2,6-diyldi-1,3,4-thiadiazole-5,2-diyl)bis[2-(1-methyl-1H-pyrazol-3-yl)acetamide]]
2.2	O=C(Cc1ccccn1)Nc1ccc(CC2CCC(c3nnc(NC(=O)C[C@H]4CCCO4)s3)C2)nn1 (mixture of isomers) [Example 129, (rac)-2-(pyridin-2-yl)-N-(6-{[(cis)-3-(5-{[(2R)-tetrahydrofuran-2-ylacetyl]amino}-1,3,4-thiadiazol-2-yl)cyclopentyl]methyl}pyridazin-3-yl)acetamide]
2.1	CC(C)C(=O)Nc1nnc(C2CC3(CC(c4nnc(NC(=O)Cc5ccccn5)s4)C3)C2)s1 (racemic) [Example 135, 2-methyl-N-[5-(6-{5-[(pyridin-2-ylacetyl)amino]-1,3,4-thiadiazol-2-yl}spiro[3.3]hept-2-yl)-1,3,4-thiadiazol-2-yl]propanamide]
1.9	CC(C)C(=O)Nc1nnc(C2CC3(CC(c4nnc(NC(=O)Cc5ccn(C)n5)s4)C3)C2)s1 (racemic) [Example 136, 2-methyl-N-{5-[6-(5-{[(1-methyl-1H-pyrazol-3-yl)acetyl]amino}-1,3,4-thiadiazol-2-yl)spiro[3.3]hept-2-yl]-1,3,4-thiadiazol-2-yl}propanamide]
4.4	Cn1ccc(C(=O)Nc2nnc(C[C@H]3CC[C@@H](c4nnc(NC(=O)Cc5ccccn5)s4)C3)s2)n1 (racemic) [Example 137, (rac)-1-methyl-N-(5-{[(cis)-3-{5-[(pyridin-2-ylacetyl)amino]-1,3,4-thiadiazol-2-yl}cyclopentyl]methyl}-1,3,4-thiadiazol-2-yl)-1H-pyrazole-3-carboxamide]
120	O=C(Cc1ccccn1)Nc1nnc(C2CCC(c3nnc(NC(=O)Cc4ccccn4)s3)C2)s1 (racemic) [Example 138, N,N′-[cyclopentane-1,3-diyldi-1,3,4-thiadiazole-5,2-diyl]bis[2-(pyridin-2-yl)acetamide]]
196	O=C(Cc1ccccn1)Nc1nnc(C2CCCC(c3nnc(NC(=O)Cc4ccccn4)s3)C2)s1 (racemic) [Example 139, N,N′-[cyclohexane-1,3-diyldi-1,3,4-thiadiazole-5,2-diyl]bis[2-(pyridin-2-yl)acetamide]]
380	O=C(Cc1ccccn1)Nc1nnc(C2CCC(c3nnc(NC(=O)Cc4ccccn4)s3)CC2)s1 (racemic) [Example 140, N,N′-(cyclohexane-1,4-diyldi-1,3,4-thiadiazole-5,2-diyl)bis[2-(pyridin-2-yl)acetamide]]
298	CC(=O)Nc1nnc(C2CC3(C2)CC(c2nnc(NC(C)=O)s2)C3)s1 (racemic) [Example 141, N,N′-(spiro[3.3]heptane-2,6-diyldi-1,3,4-thiadiazole-5,2-diyl)diacetamide]
13.2	O=C(Cn1cccn1)Nc1nnc(C[C@H]2CC[C@@H](c3nnc(NC(=O)Cc4ccccn4)s3)C2)s1 (racemic) [Example 142, (rac)-2-(1H-pyrazol-1-yl)-N-(5-{[(cis)-3-{5-[(pyridin-2-ylacetyl)amino]-1,3,4-thiadiazol-2-yl}cyclopentyl]methyl}-1,3,4-thiadiazol-2-yl)acetamide]
4.2	O=C(CCn1cccn1)Nc1nnc(C[C@H]2CC[C@@H](c3nnc(NC(=O)Cc4ccccn4)s3)C2)s1 (racemic) [Example 143, (rac)-3-(1H-pyrazol-1-yl)-N-(5-{[(cis)-3-{5-[(pyridin-2-ylacetyl)amino]-1,3,4-thiadiazol-2-yl}cyclopentyl]methyl}-1,3,4-thiadiazol-2-yl)propanamide]
0.7	O=C(Cc1ccccn1)Nc1nnc([C@@H]2CC[C@H](Cc3nnc(NC(=O)c4ccccc4F)s3)C2)s1 (racemic) [Example 144, (rac)-2-fluoro-N-(5-{[(cis)-3-{5-[(pyridin-2-ylacetyl)amino]-1,3,4-thiadiazol-2-yl}cyclopentyl]methyl}-1,3,4-thiadiazol-2-yl)benzamide]
7.1	CC(=O)Nc1nnc([C@@H]2CC[C@H](Cc3nnc(NC(=O)Cc4cscn4)s3)C2)s1 (racemic) [Example 145, (rac)-N-[5-({(cis)-3-[5-(acetylamino)-1,3,4-thiadiazol-2-yl]cyclopentyl}methyl)-1,3,4-thiadiazol-2-yl]-2-(1,3-thiazol-4-yl)acetamide]
6.9	CC(=O)Nc1nnc([C@@H]2CC[C@H](Cc3nnc(NC(=O)Cc4ccn(C)n4)s3)C2)s1 (racemic) [Example 146, (rac)-N-[5-({(cis)-3-[5-(acetylamino)-1,3,4-thiadiazol-2-yl]cyclopentyl}methyl)-1,3,4-thiadiazol-2-yl]-2-(1-methyl-1H-pyrazol-3-yl)acetamide]
12.6	CC(=O)Nc1nnc([C@@H]2CC[C@H](Cc3nnc(NC(=O)c4ccccc4F)s3)C2)s1 (racemic) [Example 148, (rac)-N-[5-({(cis)-3-[5-(acetylamino)-1,3,4-thiadiazol-2-yl]cyclopentyl}methyl)-1,3,4-thiadiazol-2-yl]-2-fluorobenzamide]
6.9	CC(=O)Nc1nnc([C@@H]2CC[C@H](Cc3nnc(NC(=O)Cc4cn5ccccc5n4)s3)C2)s1 (racemic) [Example 149, (rac)-N-[5-({(cis)-3-[5-(acetylamino)-1,3,4-thiadiazol-2-yl]cyclopentyl}methyl)-1,3,4-thiadiazol-2-yl]-2-(imidazo[1,2-a]pyridin-2-yl)acetamide]
